According to patent publication US10835542B2, “9-aminomethyl minocycline compounds and use thereof in treating community-acquired bacterial pneumonia (CABP)” (Paratek Pharmaceuticals, Inc., priority 2016, dated 2020):

In the case of `COc1c(N2C[C@@H]3CCCN[C@@H]3C2)c(F)cc2c(=O)c(C(=O)O)cn(C3CC3)c12` [Moxifloxacin, moxifloxacin, reference compound], the “Total number of deaths” value (ITT population) is reported as 4, the Subjects who died (Safety population) is reported as 4 (1.0) n (%) and the “Subjects with at least one Adverse Event (AE)” value (Safety population) is reported as 200 (51.5) n (%). The “Subjects with at least one Drug-Related Serious TEAE” value (Safety population) was 2 (0.5) n (%), the “Subjects with at least one Drug-Related TEAE” value (Safety population) was 69 (17.8) n (%) and the “Subjects with at least one Serious TEAE” value (Safety population) was 26 (6.7) n (%). The “Subjects with at least one Serious TEAE Leading to Death” value (Safety population) was 4 (1.0) n (%), the “Subjects with at least one Serious TEAE Leading to Premature Discontinuation of Test Article” value (Safety population) was 11 (2.8) n (%) and the “Subjects with at least one Severe TEAE” value (Safety population) was 26 (6.7) n (%). The “Subjects with at least one TEAE” value (Safety population) was 188 (48.5) n (%), the “Subjects with at least one TEAE Leading to Dose Interruption” value (Safety population) was 0 n (%) and the “Subjects with at least one TEAE Leading to Premature Discontinuation of Study” value (Safety population) was 9 (2.3) n (%). The “Subjects with at least one TEAE Leading to Premature Discontinuation of Test Article” value (Safety population) was 27 (7.0) n (%), the “TEAE leading to study drug discontinuation: Diarrhoea” value (Safety population) was 1 (0.3) n (%) and the “TEAE leading to study drug discontinuation: Dyspepsia” value (Safety population) was 1 (0.3) n (%). For the same molecule, the “TEAE leading to study drug discontinuation: Gastrointestinal Disorders” value (Safety population) was 2 (0.5) n (%), the “TEAE leading to study drug discontinuation: Nausea” value (Safety population) was 0 n (%) and the “TEAE leading to study drug discontinuation: Vomiting” value (Safety population) was 0 n (%). For the same molecule, the “TEAE: Alanine Aminotransferase Increased” value (Safety population) was 18 (4.6) n (%), the “TEAE: Aspartate Aminotransferase Increased” value (Safety population) was 14 (3.6) n (%) and the “TEAE: Constipation” value (Safety population) was 6 (1.5) n (%). The “TEAE: Diarrhoea” value (Safety population) was 31 (8.0) n (%), the “TEAE: Dyspepsia” value (Safety population) was 2 (0.5) n (%) and the “TEAE: Gamma-Glutamyltransferase Increased” value (Safety population) was 8 (2.1) n (%). For the same molecule, the “TEAE: Headache” value (Safety population) was 5 (1.3) n (%), the “TEAE: Hypertension” value (Safety population) was 11 (2.8) n (%) and the “TEAE: Insomnia” value (Safety population) was 8 (2.1) n (%). The “TEAE: Nausea” value (Safety population) was 21 (5.4) n (%), the “TEAE: Pseudomembranous Colitis” value (Safety population) was 1 (0.3) n (%) and the “TEAE: Vomiting” value (Safety population) was 6 (1.5) n (%). For the same molecule, the “Total Number of AEs” value (Safety population) was 520 and the “Total Number of TEAEs” value (Safety population) was 461.
